Assay results taken from US6794396B2, “Substituted pyridines useful for inhibiting cholesteryl ester transfer protein activity” (Pharmacia Corporation, priority 1998, dated 2004).
Several values for one entry are separate records, joined by “and”; a condition that tells them apart may be missing. Equal values may be shown once.

What was measured:
[1] = target: T1, CETP in human plasma or serum pool (Homo sapiens, UniProt P11597); assay: Whole serum CETP activity assay (tritiated cholesterol ester); type: biochemical; conditions: 4 hours at 37° C.
T1 construct: from tissue; host or cells: pooled human EDTA plasma or serum from healthy volunteers
T1 sequence (P11597 18-493): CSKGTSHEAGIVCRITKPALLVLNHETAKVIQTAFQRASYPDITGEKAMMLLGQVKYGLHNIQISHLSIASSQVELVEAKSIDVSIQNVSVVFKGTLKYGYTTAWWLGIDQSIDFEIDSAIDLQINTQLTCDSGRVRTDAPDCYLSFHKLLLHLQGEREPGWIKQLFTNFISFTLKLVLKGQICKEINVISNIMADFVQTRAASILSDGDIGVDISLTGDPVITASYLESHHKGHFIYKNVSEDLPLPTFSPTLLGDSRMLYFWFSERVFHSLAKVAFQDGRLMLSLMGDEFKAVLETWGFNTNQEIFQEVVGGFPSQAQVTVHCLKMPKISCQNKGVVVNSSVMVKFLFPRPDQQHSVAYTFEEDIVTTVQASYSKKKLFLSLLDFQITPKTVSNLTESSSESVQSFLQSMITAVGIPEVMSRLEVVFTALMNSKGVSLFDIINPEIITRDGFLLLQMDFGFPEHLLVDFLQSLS
Method: Blood was obtained from healthy volunteers recruited from the personnel of Monsanto Company, Saint Louis, Mo. Blood was either collected in tubes containing EDTA (EDTA plasma pool) or in tubes without EDTA (spun to form the serum pool). The EDTA human plasma pool or human serum pool, previously stored at −20° C., was thawed at room temperature, and centrifuged for 5 minutes to remove any particulate matter. Tritiated HDL, radiolabeled in the cholesteryl ester moiety ([^3H]CE-HDL) as described by Morton and Zilversmit (J. Biol. Chem., 256, 11992-95 (1981) which is incorporated by reference herein), was added to the plasma or serum to a final concentration of (25 μg/ml cholesterol).
Inhibitor compounds were added to the plasma or serum as follows: Equal volumes of the plasma or serum containing the [^3H]CE-HDL (396 μl) were pipetted into micro tubes (Titertube®, Bio-Rad Laboratories, Hercules, Calif.). Compounds, usually dissolved as 20-50 mM stock solutions in DMSO, were serially diluted in DMSO (or an alternative solvent in some cases, such as dimethylformamide or ethanol). Four μl of each of the serial dilutions of inhibitor compounds or DMSO alone were then added to each of the plasma or serum tubes. The tubes were immediately mixed. Triplicate aliquots (100 μl) from each plasma or serum tube were then transferred to wells of 96-well round-bottomed polystyrene microtiter plates (Corning, Corning, N.Y.). Plates were sealed with plastic film and incubated at 37° C. for 4 hours.
Test wells contained plasma or serum with dilutions of inhibitor compounds. Control wells contained plasma or serum with DMSO alone. Blank wells contained plasma or serum with DMSO alone that were left in the micro tubes at 4° C. for the 4 hour incubation and were added to the microtiter wells at the end of the incubation period. VLDL and LDL were precipitated by the addition of 10 μl of precipitating reagent (1% (w/v) Dextran Sulfate (Dextralip50)/0.5M magnesium chloride, pH 7.4) to all wells. The wells were mixed on a plate mixer and then incubated at ambient temperature for 10 min. The plates were then centrifuged at 1000×g for 30 mins at 10° C. The supernatants (50 μl) from each well were then transferred to Picoplate™ 96 plate wells (Packard, Meriden, Conn.) containing […] Microscint™-40 (Packard, Meriden, Conn.). The plates were heat-sealed (TopSeal™-P, Packard, Meriden, Conn.) according to the manufacturers directions and mixed for 30 min.
Radioactivity was measured on a microplate scintillation counter (TopCount, Packard, Meriden, Conn.). […] The maximum percent transfer (in the control wells) was determined using the following equation: [formula]
The percent of control transfer determined in the wells containing inhibitor compounds was determined as follows: [formula]
IC50 values were then calculated from plots of % control versus concentration of inhibitor compound.

CETP = assay: Inhibition of CETP activity in vivo: [3H]CE transfer from HDL to VLDL and LDL after intravenous injection; design: species or system golden Syrian hamster; conditions: hamsters, injection into jugular vein; for % Inhibition of CETP activity: versus control animals
Description: Inhibition of CETP by a test compound can be determined by administering the compound to an animal by intravenous injection, determining the rate of transfer of tritium-labeled cholesteryl ester (^3H]CE) from HDL to VLDL and LDL particles, and comparing the rate of transfer with the rate of transfer observed in control animals.
Male golden Syrian hamsters were maintained on a diet of chow containing 0.24% cholesterol for at least two weeks prior to the study. Immediately before the experiment, animals were anesthetized with pentobarbital. Anesthesia was maintained throughout the experiment. Indwelling catheters were inserted into the jugular vein and carotid artery. Test compound, Dimethyl 5,5′-dithiobis[2-difluoromethyl)-4-(2-methylpropyl)-6-(trifluoromethyl)-3-pyridinecarboxylate] (Compound 181), was dissolved as a 80 mM stock solution in vehicle (2% ethanol: 98% PEG 400, Sigma Chemical Company, St. Louis, Mo., USA). At the start of the experiment all animals received 0.2 ml of a solution containing [^3H]-CE-HDL into the jugular vein. [^3H[-CE-HDL is a preparation of human HDL containing tritium-labeled cholesteryl ester, and was prepared according to the method of Glenn et al. (“Quantification of Cholesteryl Ester Transfer Protein (CETP): A) CETP Activity and B) Immunochemical Assay of CETP Protein,” Meth. Enzymol., Glenn and Melton (Meth. Enzymol., 263, 339-351 (1996) which is incorporated herein by reference).
After 2 minutes, the animals received 0.1 ml of the test solution injected into the jugular vein. Control animals received 0.1 ml of the vehicle solution without test compound. After 5 minutes, the first blood samples (0.5 ml) were taken from the carotid artery and collected in standard microtainer tubes containing ethylenediamine tetraacetic acid. Saline (0.5 ml) was injected to flush the catheter and replace blood volume. Subsequent blood samples were taken at two hours and four hours by the same method. Blood samples were mixed well and kept on ice until the completion of the experiment.
Plasma was obtained by centrifugation of the blood samples at 4° C. The plasma (50 μl) was then treated with 5 μl of precipitating reagent (dextran sulfate, 10 g/l; 0.5M magnesium chloride to remove VLDL/LDL. After centrifugation, the resulting supernatant (25 μl) containing the HDL was analyzed for radioactivity using a liquid scintillation counter. The percentage [^3H] CE transferred from HDL to LDL and VLDL (% transfer) was calculated based on the total radioactivity in equivalent serum samples before precipitation. Typically, the amount of transfer from HDL to LDL and VLDL in control animals was 30 to 35% after four hours. The polyethylene glycol vehicle was determined to have no effect on CETP activity in this model.
(Compound 181), and five animals that received vehicle. At two hours, mean values of 13% [^3H]-Ce transfer from HDL to LDL and VLDL were obtained for the control animals, but only 4.7% transfer for the animals receiving Compound 181. […] Student t-tests were performed to determine if the means for control and animals treated with Compound 181 were statistically different.

IC50 whole serum CETP activity [1]: 16 µM
Compound: COC(=O)c1c(C(F)F)nc(C(F)(F)F)c(SSc2c(C(F)(F)F)nc(C(F)F)c(C(=O)OC)c2CC(C)C)c1CC(C)C [Compound 181, Dimethyl 5,5′-Dithiobis[2-(difluoromethyl)-4-(2-methylpropyl)-6-(trifluoromethyl)-3-pyridinecarboxylate]]
% Transfer of [3H]-CE from HDL to LDL and VLDL (CETP; four hours): 10.6%
% Inhibition of CETP activity (CETP; four hours): 50.8%
% Transfer of [3H]-CE from HDL to LDL and VLDL (CETP; two hours): 4.7%
% Inhibition of CETP activity (CETP; two hours): 64% and 63.6%
